Assay results: patent publication US10508109B2 (priority 2015, dated 2019)
Counter-ions that a name gives are not always drawn. Like-named read-outs stand apart in the source and are kept apart here.

Legend:
[1] = tested on: HFL1; test: Cell-based assay, anti-proliferative activity (Cell Counting Kit-8, 72 hours); settings: Homo sapiens, read-out: IC50 (μM) HFL1
Description: (§1) Active candidate inhibitors against SUV39H2 were evaluated for their target-specific cytotoxicity using A549, HCT-116, HFL1, CCD-18Co and PC14. 100 micro-L of cell suspension was seeded onto 96-well microtiter plate (ViewPlate-96FTC, PerkinElmer). The initial cell concentration of A549, HCT-116, HFL1, CCD-18Co and PC14 were 3,000 cells/well, 2,000 cells/well and 2,500 cells/well, respectively. Cellular growth was determined using Cell Counting Kit-8 (DOJINDO) at 72 hours after the exposure of the candidate inhibitors. IC50 was used as an indicator of the anti-proliferative activity of the inhibitors, and calculated by serial dilution method (0, 1.5625, 3.125, 6.25, 12.5, 25, 50, and 100 micro-M). Accurate IC50 values were calculated as described previously.

[2] = tested on: HCT-116; test: as above; settings: Homo sapiens, read-out: IC50 (μM) HCT-116
Description: as §1

[3] = tested on: CCD-18Co; test: as above; settings: Homo sapiens, read-out: IC50 (μM) CCD-18Co
Description: as §1

[4] = tested on: A549; test: as above; settings: Homo sapiens, read-out: IC50 (μM) A549
Description: 100 micro-L of cell suspension was seeded onto 96-well microtiter plate (ViewPlate-96FTC, PerkinElmer). […] Cellular growth was determined using Cell Counting Kit-8 (DOJINDO) at 72 hours after the exposure of the candidate inhibitors. […] Accurate IC50 values were calculated as described previously.

[5] = target: SUV39H2 (Homo sapiens (Human), UniProt Q9H5I1); settings: read-out: IC50 (μM) Suv 39H2 assay
SUV39H2, sequence (Q9H5I1 whole entry): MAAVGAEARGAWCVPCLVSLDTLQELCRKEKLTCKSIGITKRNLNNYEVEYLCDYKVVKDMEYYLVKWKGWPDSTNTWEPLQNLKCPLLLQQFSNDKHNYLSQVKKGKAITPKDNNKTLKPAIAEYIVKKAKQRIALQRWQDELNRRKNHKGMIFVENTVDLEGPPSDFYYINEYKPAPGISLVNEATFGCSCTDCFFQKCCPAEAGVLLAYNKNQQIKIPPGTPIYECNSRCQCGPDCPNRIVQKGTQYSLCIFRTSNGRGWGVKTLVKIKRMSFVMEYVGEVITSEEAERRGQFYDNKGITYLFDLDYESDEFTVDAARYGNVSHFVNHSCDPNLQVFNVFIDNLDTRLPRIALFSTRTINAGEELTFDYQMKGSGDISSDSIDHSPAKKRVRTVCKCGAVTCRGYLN

[6] = HFL1 cells, Cell Counting Kit-8, 72 hours
[7] = HCT-116 cells, Cell Counting Kit-8, 72 hours
[8] = CCD-18Co cells, Cell Counting Kit-8, 72 hours
[9] = A549 cells, Cell Counting Kit-8, 72 hours

| SMILES | IC50 [1, 6] [µM] | IC50 [2, 7] [µM] | IC50 [3, 8] [µM] | IC50 [4, 9] [µM] | IC50 ([5]; enzyme assay) [µM] | IC50 ([1]; HFL1, 72 h) [µM] | IC50 ([2]; HCT-116, 72 h) [µM] | IC50 ([3]; CCD-18Co, 72 h) [µM] | IC50 ([4]; A549, 72 h) [µM] | IC50 [5] [µM] |
| --- | --- | --- | --- | --- | --- | --- | --- | --- | --- | --- |
| COc1cc(OC)c(-c2cn3ccc(NCCN4CCOCC4)cc3n2)cc1Cl [Example 70, 2-(5-chloro-2,4-dimethoxyphenyl)-N-(2-morpholinoethyl)imidazo[1,2-a]pyridine-7-amine] | 8.4 | 10 | 14 | 14 | 0.0165 |  |  |  |  |  |
| COc1cc(OC)c(-c2cn3ccc(N4CCOCC4)nc3n2)cc1Cl [Example 79, 4-(2-(5-chloro-2,4-dimethoxyphenyl)imidazo[1,2-a]pyrimidin-7-yl)-morpholine hydrobromide] | 15 | 21 | 22 | 21 | 0.0344 |  |  |  |  |  |
| COc1cc(OC)c(-c2cn3ccc(C4=CCN(CCF)CC4)cc3n2)cc1Cl [Example 113, 2-(5-chloro-2,4-dimethoxyphenyl)-7-(1-(2-fluoroethyl)-1,2,3,6-tetrahydropyridin-4-yl)imidazo[1,2-a]pyridine] | 5.2 | 6.7 | 7.6 | 6.7 | 0.0571 |  |  |  |  |  |
| COc1cc(OC)c(-c2cn3ccc(C4CCC(=O)CC4)cc3n2)cc1Cl [Example 119, 4-(2-(5-chloro-2,4-dimethoxyphenyl)imidazo[1,2-a]pyridin-7-yl)-cyclohexanone] |  |  |  |  | 0.0429 | 3.5 | 9.7 | 3.6 | 5.8 |  |
| COc1cc(OC)c(-c2cn3ccc(N4CCC(N)CC4)nc3n2)cc1Cl [Example 42, 1-(2-(5-chloro-2,4-dimethoxyphenyl)imidazo[1,2-a]pyrimidin-7-yl)-piperidin-4-amine hydrochloride] |  |  |  |  |  | 4.2 | 6.6 | 13 | 10 | 0.079 |
| COc1cc(OC)c(-c2cn3ccc(N4CC[C@H](NC(=O)OC(C)(C)C)C4)nc3n2)cc1Cl [Example 56, (S)-tert-butyl (1-(2-(5-chloro-2,4-dimethoxyphenyl)imidazo[1,2-a]-pyrimidin-7-yl)pyrrolidin-3-yl)carbamate] | 5.7 | 7 | 7 | 7.5 | 0.0168 |  |  |  |  |  |
| COc1cc(OC)c(-c2cn3ccc(NCCN)cc3n2)cc1Cl [Example 10, N^1-(2-(5-chloro-2,4-dimethoxyphenyl)imidazo[1,2-a]pyridin-7-yl)ethane-1,2-diamine dihydrochloride] |  |  |  |  |  | 3.7 | 4.2 | 7.1 | 6.8 | 0.015 |
| COc1cc(OC)c(-c2cn3ccc(C4=CCC5(CC4)OCCO5)cc3n2)cc1Cl [Example 117, 2-(5-chloro-2,4-dimethoxyphenyl)-7-(1,4-dioxaspiro[4.5]dec-7-en-8-yl)-imidazo[1,2-a]pyridine] | 5.2 | 3 | 7.7 | 3.5 | 0.0633 |  |  |  |  |  |
| COc1cc(OC)c(-c2cn3ccc(N4CCOCC4)cc3n2)cc1C [Example 86, 4-(2-(2,4-dimethoxy-5-methylphenyl)imidazo[1,2-a]pyridin-7-yl)morpholine] | 8 | 14 | 13 | 14 | 0.0207 |  |  |  |  |  |
| COc1cc(OCCN(C)C)c(-c2cn3ccc(N4CCOCC4)cc3n2)cc1Cl [Example 98, 2-(4-chloro-5-methoxy-2-(7-morpholinoimidazo[1,2-a]pyridin-2-yl)-phenoxy)-N,N-dimethylethanamine] | 15 | 13 | 9.9 | 22 | 0.0372 |  |  |  |  |  |
| COc1cc(OC)c(-c2cn3cc(CCCCN)c(N4CCOCC4)cc3n2)cc1Cl [Example 114, 4-(2-(5-chloro-2,4-dimethoxyphenyl)-7-morpholinoimidazo[1,2-a]pyridin-6-yl)butan-1-amine] | 6.2 | 7.9 | 8.9 | 8.7 | 0.0502 |  |  |  |  |  |
| CCOC(=O)N1CCN(c2ccn3cc(-c4cc(Cl)c(OC)cc4OC)nc3c2)CC1 [Example 107, ethyl 4-[2-(5-chloro-2,4-dimethoxyphenyl)imidazo[1,2-a]pyridin-7-yl]-piperazine-1-carboxylate] | 1.7 | 1.7 | 3.2 | 2.3 | 0.0116 |  |  |  |  |  |
| COc1cc(OC)c(-c2cn3ccc(-c4cncc(N)c4)cc3n2)cc1Cl [Example 27, 5-[2-(5-chloro-2,4-dimethoxyphenyl)imidazo[1,2-a]pyridin-7-yl]pyridin-3-amine] | 1.8 | 3.3 | 3.3 | 1.9 | 0.0396 |  |  |  |  |  |
| COc1cc(OC)c(-c2cn3ccc(N4CC[C@@H](N)C4)nc3n2)cc1Cl [Example 55, (R)-1-(2-(5-Chloro-2,4-dimethoxyphenyl)imidazo[1,2-a]pyrimidin-7-yl)pyrrolidin-3-amine hydrochloride] |  |  |  |  |  | 4.8 | 10 | 14 | 12 | 0.0262 |
| COc1cc(OC)c(-c2cn3ccc(NCCCN)cc3n2)cc1Cl [Example 35, N^1-(2-(5-chloro-2,4-dimethoxyphenyl)imidazo[1,2-a]pyridin-7-yl)propane-1,3-diamine] | 7 | 9.8 | 14 | 14 | 0.0124 |  |  |  |  |  |
| COc1cc(OC2CCCC2)c(-c2cn3ccc(N4CCOCC4)cc3n2)cc1Cl [Example 90, 4-(2-(5-chloro-2-(cyclopentyloxy)-4-methoxyphenyl)imidazo[1,2-a]-pyridin-7-yl)morpholine] | 3.9 | 4.7 | 6 | 7.1 | 0.0584 |  |  |  |  |  |
| COc1cc(OC)c(-c2cn3ccc(N)cc3n2)cc1Br [Example 5, 2-(5-bromo-2,4-dimethoxyphenyl)imidazo[1,2-a]pyridin-7-amine] | 2.1 | 3.1 | 3.8 | 3.6 | 0.0103 |  |  |  |  |  |
| COc1cc(OC)c(-c2cn3ccc(NCCN(C)C)cc3n2)cc1Cl [Example 83, N^1-(2-(5-chloro-2,4-dimethoxyphenyl)imidazo[1,2-a]pyridin-7-yl)-N^2,N^2-dimethylethane-1,2-diamine] |  |  |  |  | 0.0373 | 2.2 | 6.7 | 7.1 | 5.5 |  |
| COc1ccc(-c2cn3ccc(N4CCCC4)cc3n2)cc1C#N [Example 21, 2-methoxy-5-(7-(pyrrolidin-1-yl)imidazo[1,2-a]pyridin-2-yl)benzonitrile hydrobromide] | 2.5 | 3.1 | 5.5 | 4.2 | 0.0733 |  |  |  |  |  |
| COc1cc(OC)c(-c2cn3ccc(C4=CCOCC4)cc3n2)cc1Cl [Example 118, 2-(5-chloro-2,4-dimethoxyphenyl)-7-(3,6-dihydro-2H-pyran-4-yl)-imidazo[1,2-a]pyridine] | 6.9 | 9.1 | 11 | 6.9 | 0.0661 |  |  |  |  |  |
| COc1cc(OCCCN(C)C)c(-c2cn3ccc(N4CCOCC4)cc3n2)cc1Cl [Example 85, 3-(4-chloro-5-methoxy-2-(7-morpholinoimidazo[1,2-a]pyridin-2-yl)-phenoxy)-N,N-dimethylpropan-1-amine] | 3.5 | 9 | 7.9 | 8.7 | 0.0338 |  |  |  |  |  |
| COc1cc(OC)c(-c2cn3ccc(N4CCCC4)cc3n2)cc1Br [Example 1, 2-(5-bromo-2,4-dimethoxyphenyl)-7-(pyrrolidin-1-yl)imidazo[1,2-a]pyridine] |  |  |  |  | 0.0182 | 1.6 | 1.7 | 2.6 | 2.5 |  |
| COc1cc(OC)c(-c2cn3ccc(N4CCOCC4)cc3n2)cc1F [Example 87, 4-(2-(5-fluoro-2,4-dimethoxyphenyl)imidazo[1,2-a]pyridin-7-yl)morpholine hydrobromide] | 4 | 2.3 | 5.6 | 3.3 | 0.032 |  |  |  |  |  |
| COc1cc(OC)c(-c2cn3ccc(NCCN4CCCCC4)cc3n2)cc1Cl [Example 64, 2-(5-chloro-2,4-dimethoxyphenyl)-N-(2-(piperidin-1-yl)ethyl)imidazo[1,2-a]pyridine-7-amine] |  |  |  |  |  | 2.6 | 3.4 | 4.5 | 4.2 |  |
| COc1cc(OC)c(-c2cn3ccc(N4CCN(CCC(=O)O)CC4)cc3n2)cc1Cl [Example 133, 3-(4-(2-(5-chloro-2,4-dimethoxyphenyl)imidazo[1,2-a]pyridin-7-yl)piperazin-1-yl)propanoic acid] |  |  |  |  | 0.0137 |  |  |  |  |  |
